{"source": "patent US20090075898A1", "about": "“Complement C3A Derived Peptides and Uses Thereof” (Yeda Research and Development Co. Ltd. at the Weizmann …, priority 2005, published 2009)", "key": {"RBL-2H3 cells": {"test_system": "RBL-2H3 cells", "conditions": "for Inhibition of IgE-mediated β-hexosaminidase release from RBL-2H3 cells: peptides 5 min prior to suboptimal (5 ng/ml) antigen dose"}, "Lyn": {"test_system": "Lyn", "experiment": "Phosphorylation of Lyn in RBL-2H3 cells, Western blot", "format": "cell-based, rat", "conditions": "cells stimulated by antigen in the presence of peptide", "protocol": "Immunoprecipitation and Western blot. Mast cells were seeded in 10 cm Petri dishes (7×10^6 cells/dish) and saturated with A2IgE at 37° C. in DMEM overnight. […] The reaction was terminated by 500 μl lysis buffer (1% Triton X-100, 50 mM HEPES, 100 mM NaF, 10 mM EDTA, 2 mM sodium orthovanadate, 10% glycerol, 10 mM sodium pyrophosphate, protease inhibitor cocktail 1:200, pH 7.4) per dish. The cells were scraped and the protein content of the post nuclear supernatants was adjusted to equal values using the Bradford-assay prior to precipitation by PT-66 phosphotyrosine specific antibody coated beads (10 μl beads per sample). The proteins were eluted by sample buffer containing 2-mercaptoethanol and were separated by SDS-PAGE, electrotransferred onto a nitrocellulose membrane and developed using the indicated antibodies and detected by ECL.\nThese are known to include phosphorylation by the src-family PTK Lyn of the ITAMs of the FcεRI β and γ subunits.\nThe inhibitory action of the peptide C3a31 on the FcεRI coupling cascade was also investigated using the rat mucosal-type RBL-2H3 line."}, "[1]": {"test_system": "bone marrow derived mast cells (BMMC)", "experiment": "Secretory response (β-hexosaminidase release) of bone marrow derived mast cells", "format": "cell-based, mouse", "protocol": "Cells. Bone marrow derived mast cells (BMMC) were prepared from Balb/c mice as described by Nagao et al. (Science 212: 333-335, 1981). After 3 weeks, an approximately 95% pure mast cell population was obtained, showing high expression of FcεRI and stem cell factor receptor (c-kit), as measured by flow cytometry.\nSecretory response of mast cells.\nSimilar experiments were carried out using bone-marrow derived mast cells (BMMC). […] The control peptide of the sequence DVSNYITR had no effect on either system."}, "[2]": {"test_system": "passive systemic anaphylaxis in mice", "experiment": "Passive systemic anaphylaxis, blood histamine", "format": "in vivo, mouse", "conditions": "peptide solution onto the nostrils before DNP-HSA antigen", "protocol": "Passive Systemic Anaphylaxis. Mice (Balb/c) were anesthetized with 300-400 μl of avertin and injected with 3 μg of the IgE class DNP-specific monoclonal antibody (SPE-7, Sigma) in 200 μl PBS by retroorbital injection (or tail vein). After 24 hours, mice were anesthetized with 300-400 μl of avertin and exposed to ca. 100 μl of the indicated peptide (inhibitory, SEQ ID NO:11, a control reversed peptide of SEQ ID NO:35 or peptide GAKDGNEYI-COOH of SEQ ID NO:36) solution in PBS positioned onto the nostrils. This was followed by injection of the antigen (DNP-derivatized human serum albumin, HSA, 100 μg in 200 μl of PBS) or PBS only, by retroorbital injection (or tail vein). After 1.5 minutes, mice were sacrificed by cervical dislocation and cardiac puncture performed. Heparin-rinsed syringes were now used for aspiration. Blood samples were spun at 4 degrees for 10 minutes at 8000 rpm in tabletop. Histamine was assayed by the Immunotech protocol for competitive ALP assay.\nThe effect of C3a derived peptides on passive systemic anaphylaxis in mice was examined. […] The reverse peptide denoted C3a55 amide was ineffective (FIG. 5). A control group was treated with a non-relevant peptide having the amino acid sequence GAKDGNEYI-COOH of SEQ ID NO:36 prior to the injection of the antigen DNP-HSA."}}, "note": "Square brackets hold non-standard residues; d marks the D form. Ends that are not written are not given here."}
{"substance": "CCNYG (derived from human sequence) [C3a13]", "values": [{"measurement": "Inhibition of IgE-mediated β-hexosaminidase release from RBL-2H3 cells", "setting": "RBL-2H3 cells", "value": "shown to inhibit"}]}
{"substance": "D-Ala-D-Ala-Asp-Ser-Ser-Asn-Tyr-Ile-Thr-Arg-NH2 ([dA][dA]DSSNYITR-NH2; N-terminus assumed; SMILES CC[C@H](C)[C@H](NC(=O)[C@H](Cc1ccc(O)cc1)NC(=O)[C@H](CC(N)=O)NC(=O)[C@H](CO)NC(=O)[C@H](CO)NC(=O)[C@H](CC(=O)O)NC(=O)[C@@H](C)NC(=O)[C@@H](C)N)C(=O)N[C@H](C(=O)N[C@@H](CCCNC(=N)N)C(N)=O)[C@@H](C)O) [C3a32]", "values": [{"measurement": "Inhibition of IgE-mediated β-hexoseaminidase secretion from RBL-2H3 (FIG. 1B)", "setting": "RBL-2H3 cells; 250 μg of peptide", "value": "found to inhibit"}]}
{"substance": "DSSNYIR [C3a11]", "values": [{"measurement": "Inhibition of IgE-mediated β-hexosaminidase release from RBL-2H3 cells", "setting": "RBL-2H3 cells", "value": "shown to inhibit"}]}
{"substance": "DVSNYITR [Control peptide, reference compound]", "values": [{"measurement": "Phosphorylation of Lyn", "setting": "Lyn", "value": "had no effect"}, {"measurement": "Inhibition of IgE-mediated secretory response of BMMC", "setting": "[1]", "value": "had no effect"}, {"measurement": "Inhibitory effect (IC50) on the IgE-mediated degranulation of BMMC", "setting": "[1]; suboptimal antigen-dose", "value": "No effect"}, {"measurement": "Inhibition of IgE-mediated β-hexosaminidase release from RBL-2H3 cells", "setting": "RBL-2H3 cells", "value": "had no effect"}, {"measurement": "Inhibitory effect (IC50) on the IgE-mediated degranulation of RBL-2H3", "setting": "RBL-2H3 cells; suboptimal antigen-dose", "value": "No effect"}]}
{"substance": "RTIYNSSDS (RTIYNSSDS-NH2) [C3a55, reference compound]", "values": [{"measurement": "Symptoms of passive systemic anaphylaxis, histamine levels in mice blood", "setting": "[2]", "value": "ineffective"}]}
